Experiments:
Carboplatin = compound: C1CC(C1)(C(=O)[O-])C(=O)[O-].N.N.[Pt+2] [Carboplatin]; conditions: max 10 µM
Summary of the method: (§1)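 Cancer cell lines in 1536-well plates (7.5 μl DMEM/F12 or RPMI, 10% FBS) were held 24 hours at 37°C and 5% CO2 and then dosed for 72 hours at a final DMSO of typically 0.2%. Viability was taken from CellTiter-Glo 2.0 luminescence, scaled between blank-well and DMSO-well means. Curves were fitted as two-parameter logistic models with a non-linear mixed effects model, from which the single-agent IC50 was taken.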

AZD5363 = compound: C1CN(CCC1(C(=O)N[C@@H](CCO)C2=CC=C(C=C2)Cl)N)C3=NC=NC4=C3C=CN4 [AZD5363]; conditions: max 10 µM
Summary of the method: as §1

AZD1775 = compound: C=CCn1c(=O)c2cnc(Nc3ccc(N4CCN(C)CC4)cc3)nc2n1-c1cccc(C(C)(C)O)n1 [AZD1775]; conditions: max 3 µM
Summary of the method: as §1

Trametinib = compound: CC(=O)Nc1cccc(-n2c(=O)n(C3CC3)c(=O)c3c(Nc4ccc(I)cc4F)n(C)c(=O)c(C)c32)c1 [Trametinib]; conditions: max 1 µM
Summary of the method: as §1

Paclitaxel = compound: CC(=O)O[C@H]1C(=O)[C@@]2(C)[C@H]([C@H](OC(=O)c3ccccc3)[C@]3(O)C[C@H](OC(=O)[C@H](O)[C@@H](NC(=O)c4ccccc4)c4ccccc4)C(C)=C1C3(C)C)[C@]1(OC(C)=O)CO[C@@H]1C[C@@H]2O [Paclitaxel]; conditions: max 3 µM
Summary of the method: as §1

Palbociclib = compound: CC(=O)c1c(C)c2cnc(Nc3ccc(N4CCNCC4)cn3)nc2n(C2CCCC2)c1=O [Palbociclib]; conditions: max 10 µM
Summary of the method: as §1

AZD1390 = compound: CC(C)n1c(=O)n(C)c2cnc3cc(F)c(-c4ccc(OCCCN5CCCCC5)nc4)cc3c21 [AZD1390]; conditions: max 0.3 µM
Summary of the method: as §1

Venetoclax = compound: CC1(C)CCC(CN2CCN(c3ccc(C(=O)NS(=O)(=O)c4ccc(NCC5CCOCC5)c([N+](=O)[O-])c4)c(Oc4cnc5[nH]ccc5c4)c3)CC2)=C(c2ccc(Cl)cc2)C1 [Venetoclax]; conditions: max 1 µM
Summary of the method: as §1

Dasatinib = compound: CC1=C(C(=CC=C1)Cl)NC(=O)C2=CN=C(S2)NC3=CC(=NC(=N3)C)N4CCN(CC4)CCO [Dasatinib]; conditions: max 2 µM
Summary of the method: as §1

SG3199 = compound: CC1=CN2[C@@H](C1)C=NC3=CC(=C(C=C3C2=O)OC)OCCCCCOC4=C(C=C5C(=C4)N=C[C@@H]6CC(=CN6C5=O)C)OC [SG3199]; conditions: max 0.001 µM
Summary of the method: as §1

AZD2811 = compound: CCN(CCO)CCCOc1ccc2c(Nc3cc(CC(=O)Nc4cccc(F)c4)[nH]n3)ncnc2c1 [AZD2811]; conditions: max 1 µM
Summary of the method: as §1

SN-38 = compound: CCc1c2c(nc3ccc(O)cc13)-c1cc3c(c(=O)n1C2)COC(=O)[C@]3(O)CC [SN-38]; conditions: max 0.3 µM
Summary of the method: as §1

AZD0156 = compound: CN(C)CCCOc1ccc(-c2ccc3ncc4c(c3c2)n(C2CCOCC2)c(=O)n4C)cn1 [AZD0156]; conditions: max 3 µM
Summary of the method: as §1

AZD4320 = compound: CN(CC[C@H](CSC1=CC=CC=C1)NC2=C(C=C(C=C2)S(=O)(=O)NC(=O)C3=CC=C(C=C3)N4CCC(CC4)[C@H](C5=CC=CC=C5C6=CC=C(C=C6)Cl)O)S(=O)(=O)C(F)(F)F)CCO [AZD4320]; conditions: max 1 µM
Summary of the method: as §1

Alisertib = compound: COc1cc(Nc2ncc3c(n2)-c2ccc(Cl)cc2C(c2c(F)cccc2OC)=NC3)ccc1C(=O)O [Alisertib]; conditions: max 10 µM
Summary of the method: as §1

Etoposide = compound: COc1cc([C@@H]2c3cc4c(cc3[C@@H](O[C@@H]3O[C@@H]5CO[C@@H](C)O[C@H]5[C@H](O)[C@H]3O)[C@H]3COC(=O)[C@H]23)OCO4)cc(OC)c1O [Etoposide]; conditions: max 10 µM
Summary of the method: as §1

Gefitinib = compound: COc1cc2ncnc(Nc3ccc(F)c(Cl)c3)c2cc1OCCCN1CCOCC1 [Gefitinib]; conditions: max 10 µM
Summary of the method: as §1

Prexasertib = compound: COc1cccc(OCCCN)c1-c1cc(Nc2cnc(C#N)cn2)n[nH]1 [Prexasertib]; conditions: max 1 µM
Summary of the method: as §1

Doxorubicin = compound: COc1cccc2c1C(=O)c1c(O)c3c(c(O)c1C2=O)C[C@@](O)(C(=O)CO)C[C@@H]3O[C@H]1C[C@H](N)[C@H](O)[C@H](C)O1 [Doxorubicin]; conditions: max 1 µM
Summary of the method: as §1

AZD5153 = compound: COc1nnc2ccc(N3CCC(c4ccc(OCCN5CCN(C)C(=O)[C@H]5C)cc4)CC3)nn12 [AZD5153]; conditions: max 1 µM
Summary of the method: as §1

Lapatinib = compound: CS(=O)(=O)CCNCc1ccc(-c2ccc3ncnc(Nc4ccc(OCc5cccc(F)c5)c(Cl)c4)c3c2)o1 [Lapatinib]; conditions: max 10 µM
Summary of the method: as §1

AZD8186 = compound: C[C@@H](Nc1cc(F)cc(F)c1)c1cc(C(=O)N(C)C)cc2c(=O)cc(N3CCOCC3)oc12 [AZD8186]; conditions: max 10 µM
Summary of the method: as §1

Crizotinib = compound: C[C@@H](Oc1cc(-c2cnn(C3CCNCC3)c2)cnc1N)c1c(Cl)ccc(F)c1Cl [Crizotinib]; conditions: max 10 µM
Summary of the method: as §1

Savolitinib = compound: C[C@@H](c1ccc2nccn2c1)n1nnc2ncc(-c3cnn(C)c3)nc21 [Savolitinib]; conditions: max 1 µM
Summary of the method: as §1

AZD6738 = compound: C[C@@H]1COCCN1C2=NC(=NC(=C2)C3(CC3)[S@](=N)(=O)C)C4=C5C=CNC5=NC=C4 [AZD6738]; conditions: max 10 µM
Summary of the method: as §1

AZD5991 = compound: Cc1c2c(nn1C)CSCc1cc(n(C)n1)CSc1cc(c3ccccc3c1)OCCCc1c(C(=O)O)n(C)c3c-2c(Cl)ccc13 [AZD5991]; conditions: max 1 µM
Summary of the method: as §1

AZD7648 = compound: Cc1cc2ncnn2cc1Nc1ncc2c(n1)n(C1CCOCC1)c(=O)n2C [AZD7648]; conditions: max 10 µM
Summary of the method: as §1

Taselisib = compound: Cc1nc(-c2cn3c(n2)-c2ccc(-c4cnn(C(C)(C)C(N)=O)c4)cc2OCC3)n(C(C)C)n1 [Taselisib]; conditions: max 10 µM
Summary of the method: as §1

Selumetinib = compound: Cn1cnc2c(F)c(Nc3ccc(Br)cc3Cl)c(C(=O)NOCCO)cc21 [Selumetinib]; conditions: max 10 µM
Summary of the method: as §1

SRA737 = compound: N#Cc1cnc(Nc2cc(NC[C@H]3CNCCO3)c(C(F)(F)F)cn2)cn1 [SRA737]; conditions: max 10 µM
Summary of the method: as §1

MK-2206 = compound: NC1(c2ccc(-c3nc4ccn5c(=O)[nH]nc5c4cc3-c3ccccc3)cc2)CCC1 [MK-2206]; conditions: max 10 µM
Summary of the method: as §1

Gemcitabine = compound: Nc1ccn([C@@H]2O[C@H](CO)[C@@H](O)C2(F)F)c(=O)n1 [Gemcitabine]; conditions: max 0.3 µM
Summary of the method: as §1

[1] = compound: O=C(Nc1ccc2[nH]nc(-c3ccncc3)c2c1)[C@@H]1CCN(CC(=O)N2CCN(c3ccc(-c4ncccn4)cc3)CC2)C1; conditions: max 5 µM
Summary of the method: as §1

Olaparib = compound: O=C(c1cc(Cc2n[nH]c(=O)c3ccccc23)ccc1F)N1CCN(C(=O)C2CC2)CC1 [Olaparib]; conditions: max 10 µM
Summary of the method: as §1

5-Fluorouracil = compound: O=c1[nH]cc(F)c(=O)[nH]1 [5-Fluorouracil]; conditions: max 20 µM
Summary of the method: as §1

Row | Cell Line | IC50, cell viability 72 h (Carboplatin) [nM] | IC50, cell viability 72 h (AZD5363) [nM] | IC50, cell viability 72 h (AZD1775) [nM] | IC50, cell viability 72 h (Trametinib) [nM] | IC50, cell viability 72 h (Paclitaxel) [nM] | IC50, cell viability 72 h (Palbociclib) [nM] | IC50, cell viability 72 h (AZD1390) [nM] | IC50, cell viability 72 h (Venetoclax) [nM] | IC50, cell viability 72 h (Dasatinib) [nM] | IC50, cell viability 72 h (SG3199) [nM] | IC50, cell viability 72 h (AZD2811) [nM] | IC50, cell viability 72 h (SN-38) [nM] | IC50, cell viability 72 h (AZD0156) [nM] | IC50, cell viability 72 h (AZD4320) [nM] | IC50, cell viability 72 h (Alisertib) [nM] | IC50, cell viability 72 h (Etoposide) [nM] | IC50, cell viability 72 h (Gefitinib) [nM] | IC50, cell viability 72 h (Prexasertib) [nM] | IC50, cell viability 72 h (Doxorubicin) [nM] | IC50, cell viability 72 h (AZD5153) [nM] | IC50, cell viability 72 h (Lapatinib) [nM] | IC50, cell viability 72 h (AZD8186) [nM] | IC50, cell viability 72 h (Crizotinib) [nM] | IC50, cell viability 72 h (Savolitinib) [nM] | IC50, cell viability 72 h (AZD6738) [nM] | IC50, cell viability 72 h (AZD5991) [nM] | IC50, cell viability 72 h (AZD7648) [nM] | IC50, cell viability 72 h (Taselisib) [nM] | IC50, cell viability 72 h (Selumetinib) [nM] | IC50, cell viability 72 h (SRA737) [nM] | IC50, cell viability 72 h (MK-2206) [nM] | IC50, cell viability 72 h (Gemcitabine) [nM] | IC50, cell viability 72 h [1] [nM] | IC50, cell viability 72 h (Olaparib) [nM] | IC50, cell viability 72 h (5-Fluorouracil) [nM]
1 | NCI-H2342 (Lung Adenocarcinoma) | > 10000 | > 10000 | > 3000 | > 1000 | 27 | > 10000 | > 300 | > 1000 | > 2000 | > 1 | > 1000 | > 300 | > 3000 | > 1000 | > 10000 | > 10000 | > 10000 | > 1000 | > 1000 | > 1000 | > 10000 | > 10000 | > 10000 | > 1000 | > 10000 | > 1000 | > 10000 | > 10000 | > 10000 | > 10000 | > 10000 | > 300 | > 5000 | > 10000 | > 20000
2 | OPM-2 (Plasma Cell Myeloma) | > 10000 | 1120 | 559 | 670 | 6.68 | 8600 | > 300 | > 1000 | > 2000 | > 1 | > 1000 | 108 | > 3000 | 691 | 5670 | 9350 | > 10000 | 21.3 | 754 | 12.6 | > 10000 | > 10000 | 4230 | > 1000 | 3920 | 32.3 | > 10000 | 815 | > 10000 | 4980 | 4970 | 98 | > 5000 | > 10000 | > 20000

Reference: the supplement of paper PMC11061612
